The subject of data set [1] is HCV 1b replicon cells (Huh-7.5.1). In words: Anti-HCV assay, HCV 1b replicon cells with luciferase reporter. The class given is cell-based, hepatitis C virus (HCV) subtype 1b. The note with it: Hepatitis C virus, Huh-7.5.1, 72 h, inhibitory rate at 5 μM. A general note: A replicon is a self-replicating genome or part of one, used to study replication in cells.
Data set [2] in a line: Cytotoxicity assay (CCK-8) on replicon cells. The class given is cell-based. The conditions noted are these: human, HCV 1b replicon cells (Huh-7.5.1); 50% cytotoxic concentration; CCK-8, HCV 1b replicon cells, 72 h.
Data set [3] deals with T1, C-terminal His-tagged NS5BΔ21 from HCV 1b subtype (Hepatitis C virus genotype 1b, UniProt Q913V3).
T1 construct: C-terminal His-tagged NS5BΔ21 from HCV 1b subtype; His tag (C); made in house
In words: Thermal shift assay with NS5B protein. The class given is binding. The text has this: The stability of a protein system is enhanced after binding to its specific ligand, leading to an increase in the melting temperature (Tm). Taking advantage of this feature, the thermal shift assay was extensively used to assess the binding of small molecules to the protein targets. The metal ion chelators were thought to exert an anti-HCV effect by chelating with Mg^2+ in the catalytic center of NS5B [34, 36, 38]. […] C-terminal His-tagged NS5BΔ21 from HCV 1b subtype was used as the protein in the experiment. Compared with the blank control (DMSO), the fluorescence–temperature curves of the NS5B system in the presence of 21e (Figure 3A) and 21k (Figure 3B) at 50 μM, 100 μM, and 200 μM all shifted to the right of the axis. The Tm values of 21e and 21k increased in a concentration-dependent manner, presenting higher values than that of the blank control (Tm = 63.5 °C) at all tested concentrations.
C-terminal His-tagged NS5BΔ21 from HCV 1b subtype was expressed from pET28a HCR6 plasmid in our lab and dissolved in a Tris-HCl buffer (20 mm, pH 7.2) containing 150 mm NaCl. Then, 1 μL of corresponding concentration (1 mm, 2 mm, or 4 mm) of the test compound in DMSO or 1 μL DMSO alone was added to each well of a 96-well PCR plate (Shanghai Sangon Biotech Co., Ltd., Shanghai, China). Subsequently, 19 μL of pre-prepared PBS solution containing 10 mm MgCl2, 10× SYPRO® orange protein gel stain (Sigma-Aldrich, St. Louis, MO, USA), and 5 μM NS5B protein was added to each well and mixed. The final concentration of DMSO in each well was 5%. The PCR plate was covered with a high-permeable film, incubated at room temperature for 10 min, and then placed on the Applied Biosystems^TM 7500 Real-Time PCR System (Thermo Fisher Scientific, Waltham, MA, USA). The temperature was increased to 90 °C gradually, and the change curve of fluorescence intensity versus system temperature was recorded.

T1 sequence (Q913V3 2420-2989, stated change not applied): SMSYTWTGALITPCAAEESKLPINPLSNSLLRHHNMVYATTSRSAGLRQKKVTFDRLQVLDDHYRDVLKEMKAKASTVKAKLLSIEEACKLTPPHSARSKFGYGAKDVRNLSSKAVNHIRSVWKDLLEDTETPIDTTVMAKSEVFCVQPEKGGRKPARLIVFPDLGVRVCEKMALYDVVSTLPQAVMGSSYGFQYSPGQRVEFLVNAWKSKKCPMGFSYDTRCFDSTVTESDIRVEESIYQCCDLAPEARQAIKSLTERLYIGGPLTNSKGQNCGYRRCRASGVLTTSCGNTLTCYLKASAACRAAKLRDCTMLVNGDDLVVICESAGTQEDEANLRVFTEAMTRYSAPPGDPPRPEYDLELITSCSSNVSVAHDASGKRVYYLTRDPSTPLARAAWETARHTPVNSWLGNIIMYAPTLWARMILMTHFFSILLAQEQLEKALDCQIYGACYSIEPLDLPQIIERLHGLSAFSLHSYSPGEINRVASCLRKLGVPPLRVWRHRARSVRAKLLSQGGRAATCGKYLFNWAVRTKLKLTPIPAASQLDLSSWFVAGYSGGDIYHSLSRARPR

What is called inhibition is how much of the control response was suppressed. A low value points to a weak effect. For orientation: CC50 means the concentration giving 50% cytotoxicity. A lower CC50 goes with harm at low concentration. The term ΔTm denotes the shift of the melting midpoint relative to a reference. `O=c1[nH]c2cc(-c3ccccc3)ccc2c(=O)n1O` [21e, 3-Hydroxy-7-phenylquinazoline-2,4(1H,3H)-dione]: the inhibition at 5 µM in data set [1] turned out to be 39.5%. Besides, in data set [2], the cytotoxic concentration (CC50) at 72 h was determined as 5.4 ± 0.6 µM. In data set [3] (compound 50 μM, Tm of compound group minus Tm of blank control, mean ± SD, three experiments), the shift in melting temperature (ΔTm) at 50 µM was determined as 0.6 ± 0.15 °C. Also, the shift in melting temperature (ΔTm) at 100 µM in data set [3] (compound 100 μM, Tm of compound group minus Tm of blank control, mean ± SD, three experiments) stood at 0.85 ± 0.02 °C. Besides, in data set [3] (compound 200 μM, Tm of compound group minus Tm of blank control, mean ± SD, three experiments), the “ΔTm 200 μM” value was 1.5 ± 0.01 °C. For the same molecule, the “Tm of NS5B complexed with compound” value in data set [3] (in Figure 3, blank control Tm = 63.5 °C) was found to be 65.0 °C. Moreover, the ΔTm at 200 µM in data set [3] (read-out: ΔTm 200 μM, compound 200 μM, Tm of compound group minus Tm of blank control, mean ± SD, three experiments) amounted to 1.6 °C.

(Values after article PMC9180926, “Discovery of Novel 3-Hydroxyquinazoline-2,4(1H,3H)-Dione Derivatives: A Series of Metal Ion Chelators with Potent Anti-HCV Activities” (International Journal of Molecular Sciences, 2022).)
